Data: patent US6716883B1, “Composition useful to treat periodontal disease” (priority 1998, dated 2004)

Columns and labels:
Type in all cases: cell-based
[1] = tested on: rat SBMC (stromal bone marrow cell) line; test: AP activity in rat stromal bone marrow cell (SBMC) line
Method: (§1) Cells for the rat SBMC model were obtained from Dr. Sandu Pitaru (Tel Aviv University, Israel) and maintained in T25 tissue culture flasks (Sarstedt, Newton, N.C., USA) in a medium composed of αMEM+RNA+DNA+antibiotic supplemented with 10% fetal calf serum, 10 mM β-glycerophosphate, 10^−8M dexamethasone, 50 μg/ml vitamin C and 3 ng/ml fibroblast growth factor. The media were changed every 48 hours and the cells subcultured when almost confluent (approximately every 72 hrs). Cells were grown for a period of 1-2 weeks to allow for formation of mineralized bone nodules.
(§2) SBMC cultures were assayed for AP activity using paranitrophenol-phosphate (pN-p) as the substrate as described above for CPO cultures. In some cases, AP activity was also measured using direct staining of SBMC cultures in 96 well plates as described previously (Tenenbaum et al., Anat Rec. 1995. 242(2):200-10). Mineralization in the SBMC cultures was determined using Alizarin Red staining in situ that was assessed with the Titertek spectrophotometer set at 525 nm.

[2] = tested on: chick periosteal osteogenesis (CPO) cultures; test: RT-PCR mRNA levels of bone proteins (AP, BSP, collagen type I, OPN) in CPO cultures
Method: (§3) For the purposes of this investigation, the effects of a potent aryl hydrocarbon, TCDD (2,3,7,8-tetrachlorodibenzo-p-dioxin or dioxin) on the early events occurring during osteogenesis were determined. The CPO model traverses a number of phases of osteogenesis. Therefore, it was possible to design temporal or “window” experiments in order to determine the phases of osteogenesis that were sensitive to TCDD and/or resveratrol. […] All cultures were maintained for the entire 6-day period. The compounds were administered over four different temporal phases, as outlined below in the time-line diagram: a) days 0-6; b) days 0-2; c) days 2-4 or d) days 4-6 (Note: all cultures were stopped at 6 days). Results were compared to e) vehicle alone over days 0-6. [drawing 1]
The isolation of total RNA from periosteal cultures to determine affect of TCDD on message levels of bone proteins was accomplished using the QIAGEN Rneasy® kit and QIAShredder® (Hilden, Germany) according to the manufacturer's instructions. Total RNA (2 μg) was reverse transcribed using SuperScript II™ RNase H^− Reverse Transcriptase (Gibco BRL, City Country). PCR reactions were performed in […] reactions at a cycle number ensuring a linear amplification profile (BSP, 5 min at 94° C., 30 cycles [of 20 sec at 94° C., 20 sec at 55° C., 20 sec at 72° C.]; Collagen 5 min at 94° C., 30 cycles [of 20 sec 94° C. 20 sec 58° C., 20 sec 72° C.]; AP 5 min at 94° C., 30 cycles [of 20 sec 94° C., 20 sec 59° C., 20 sec 72° C.]; OPN 5 min at 85° C., 5 min at 94° C., 25 cycles [20 sec at 94° C., 20 sec at 60° C., 20 sec at 72° C.] 7 min at 72° C.). The oligonucleotides for BSP (sense: 5′-[…]-3′; antisense: 5′-[…]-3′) AP (sense: 5′-[…]-3′; antisense: 5′-[…]-3′), Collagen (sense: 5′-[…]-3′; antisense: 5′-[…]-3′); OPN (sense 5′-[…]-3′; antisense 5′-[…]-3′) were synthesized by Life Technologies (Gibco BRL, Rockville, Md.). PCR products were electrophoresed on 1.5 (wt/vol) % agarose gels with 0.1 μg/ml ethidium bromide. The gels were visualized on an UV transilluminator and photographed using 667 Polaroid film. The inverse images of the photographs were analyzed by densitometry. All values were normalized for the internal control, β-actin.

[3] = tested on: rat SBMC (stromal bone marrow cell) line; test: Mineralization (Alizarin Red staining) in rat SBMC line
Method: as §1, §2

[4] = tested on: chick periosteal osteogenesis (CPO) cultures; test: Alkaline phosphatase activity (APA) in CPO cultures
Method: (§4) In this experiment, the chick periosteal osteogenesis (CPO) model was used to determine if bone loss is induced by dioxin. The CPO model has been described in detail previously (Nijweide, Proc. Kon. Ned. Akad. Wet. 1975. C78:410-417) and was prepared for the purposes of this experiment as set out below.
(§5) Following sacrifice, two triangular calvarial explants were removed by cutting along the central suture, transversely along the posterior suture and laterally above the eye in 17-day-old embryonic chicks. The ectocranial periosteum (outer curved surface) was peeled off using forceps under microscopic magnification and folded so that the surface originally facing bone was in apposition to itself as described previously (Tenenbaum et al., Calcif Tissue Int. 34:76-79). The folded explant was then placed on a Millipore filter (HA 0.45 μm), which was transferred onto a stainless steel grid resting in the center well of an organ culture dish (Falcon Plastics, Lincoln Park, N.J., USA) that was filled with culture media to a level such that the culture was supported at the gas-liquid interface (˜1.5 ml of media). Three cultures were placed in each dish which was then covered and incubated at 37° C. in a humidified atmosphere containing 5% CO2 in air. Media changes occurred on days 2 and 4, and the medium was comprised of BGJb medium (Fitton-Jackson Modification) with L-glutamine (Gibco, Grand Island, N.Y., USA) and supplemented with 2% antibiotic (10,000 units/ml Penicillin G sodium, 10,000 μg/ml Streptomycin sulfate in 0.85% saline) (Gibco), 10% fetal calf serum (Gibco), 10^−7M dexamethasone (Sigma, St. Louis, Mo., USA), 10 mM β-glycerophosphate, and 300 μg/ml L-ascorbate (Gibco).
as §3
On day 6, the culture dishes were placed on ice and individual cultures were transferred to separate test tubes and stored at −20° C. for further analysis.
CPO cultures were assayed for AP activity using paranitrophenol-phosphate (pN-p) as the substrate (Demetriou et al. J Biol Chem. 1996. 271(22)12755-61). The intensity of the colour change was evaluated using a Titertek® Multiskan® MCC/340 Spectrophotometer (Flow Laboratories, Mississauga, ON, Canada) and compared to a standard curve obtained from a serial dilution of 10 mM pN with bicarbonate buffer (pH 7.4) in flat bottomed Titertek 96-well plates as described previously (Demetriou et al., 1996, supra). The reaction was stopped with 100 μl of 0.2N NaOH and pN-p levels read at 405 nm on the Titertek. Calcium incorporation was assayed in the pellets produced from centrifugation of the homogenized CPO cultures following hydrolysis in 500 μl of 0.5N HCl and then measured using atomic absorption spectrophotometry (Sukhu et al. Endocrinology. 1997. 138 (8):3269-75).

[5] = tested on: chick periosteal osteogenesis (CPO) cultures; test: Histological evaluation of bone formation in chick periosteal osteogenesis (CPO) cultures
Method: as §4, §5
For the purposes of this investigation, the effects of a potent aryl hydrocarbon, TCDD (2,3,7,8-tetrachlorodibenzo-p-dioxin or dioxin) on the early events occurring during osteogenesis were determined. The CPO model traverses a number of phases of osteogenesis. […]

## Clc1cc2c(cc1Cl)Oc1cc(Cl)c(Cl)cc1O2 [TCDD, 2,3,7,8-tetrachlorodibenzo-p-dioxin]
[1]; TCDD 1.1×10^−9M
  reduction in AP activity: 33%
[1]; TCDD 3.3×10^−9M and higher
  reduction in AP activity versus control: 33%
[1]; TCDD 3.3×10^−9M to 4.12×10^−11M
  dose dependence of reduction in AP activity: dose dependant
[1]; TCDD 4.12×10^−11M
  AP activity: not affected
[2]; TCDD, p<0.05
  reduction in mRNA for BSP: ~4 fold
  reduction of mRNA levels for OPN: about 40%
  reduction of mRNA levels for type I collagen in comparison to control: 50%
  reduction of message levels for AP in comparison to control: about 50%
[3]; TCDD 4.12×10^−11M to 1.52×10^−12M
  reduction in mineralization (Alizarin Red Staining), dose dependence: dose dependant reduction in mineralization
[3]; in the presence of TCDD
  decrease in mineralization: approximately 75%
[4]; 10^−9M TCDD alone during days 0-2, p<0.05 vs. vehicle
  reduction in AP activity: 53%
[4]; 10^−9M TCDD alone during days 2-4 or 4-6
  change in AP activity: did not significantly alter AP activity
[4]; 10^−9M TCDD over a 6-day period
  reduction in AP activity versus vehicle alone: 80%
[5]; TCDD-treated CPO cultures, FIG. 1B
  bone formation (histology): obvious changes in bone formation

## Oc1ccc(C=Cc2cc(O)cc(O)c2)cc1 [resveratrol, 3,5,4′-trihydroxystilbene]
[1]; increasing concentration of resveratrol, TCDD 4.12×10^−11M
  effect on AP activity: had no effect
[1]; resveratrol 4×10^−8M to 1×10^−5M, TCDD 1.1×10^−9M
  abrogation of TCDD effect on AP activity: abrogated the effects of TCDD
[1]; resveratrol at various concentrations, TCDD 3.3×10^−9M and higher
  reversal of TCDD reduction in AP activity: not reversed
[2]; TCDD with resveratrol
  reversal of TCDD inhibition of BSP mRNA: reversed completely
[2]; both TCDD and resveratrol
  mRNA levels for OPN: restored
[2]; both TCDD and resveratrol, versus control
  mRNA levels for Type I collagen: identical levels
[2]; resveratrol alone
  message for BSP: partially down-regulate
  message for collagen: partially down-regulate
[3]; resveratrol with TCDD
  effect on TCDD-induced decrease in mineralization: attenuated
[4]; 10^−6M resveratrol alone over days 0-6, 0-2, 2-4 or 4-6
  change in AP activity: No significant change in AP activity
[4]; resveratrol 10^−5M, 10^−6M and 10^−7M with TCDD, FIG. 2a
  increase in AP activity in comparison to TCDD alone: 2-4 fold
[5]; cultures treated with both TCDD and resveratrol, FIG. 1D
  reversal of TCDD effect on bone formation (histology): complete reversal of the TCDD effect
[5]; resveratrol alone, FIG. 1C
  bone formation (histology): large deposits of bone similar to the control cultures
